The target in one assay is p38a/PRAK (Homo sapiens (Human), UniProt Q16539). The assay can be described thus: p38a/PRAK biochemical assay: activation of PRAK by p38, FITC-HSP27 peptide phosphorylation (IMAP FP). To be noted: 10-point 1:3 dilution, top dose 300 μM; 60 pM active p38a, 1 nM inactive PRAK, 10 μM ATP, 2 h incubation; read-out: p38a/PRAK Enzyme pIC50 (converted). Put shortly: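 GST-tagged MK2 (F46–H400) and PRAK (M1–Q471), expressed in E. coli, activated by p38 and phosphorylate FITC-HSP27 peptide over 2 h with compound; readout by IMAP fluorescence polarisation (ex 485/em 528 nm). Ten-point 1:3 dilutions, top dose 1 μM for MK2 and 300 μM for PRAK. IC50 after vehicle normalisation; selectivity = IC50(PRAK)/IC50(MK2).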
Chain of p38a/PRAK (Q16539 whole entry): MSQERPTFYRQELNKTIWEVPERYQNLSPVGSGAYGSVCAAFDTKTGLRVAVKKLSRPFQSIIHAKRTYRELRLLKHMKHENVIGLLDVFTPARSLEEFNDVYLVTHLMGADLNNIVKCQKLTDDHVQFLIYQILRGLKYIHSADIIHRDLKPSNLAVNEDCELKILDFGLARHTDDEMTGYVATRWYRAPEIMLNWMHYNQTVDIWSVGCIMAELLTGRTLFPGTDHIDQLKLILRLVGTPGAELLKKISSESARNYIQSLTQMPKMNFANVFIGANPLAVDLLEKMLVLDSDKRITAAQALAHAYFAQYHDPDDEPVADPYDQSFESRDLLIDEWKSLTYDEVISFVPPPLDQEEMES

The next assay addresses p38a/MK2 (Homo sapiens (Human), UniProt P49137+Q16539). The assay can be described thus: p38a/MK2 biochemical assay: activation of MK2 by p38, FITC-HSP27 peptide phosphorylation (IMAP FP). As to conditions: 10-point 1:3 dilution, 60 pM active p38a, 1 nM inactive MK2, 10 μM ATP, 2 h incubation.
Where [1] appears, read: top dose 10 μM, read-out: p38a/MK2 (10 μM) Enzyme pIC50 (converted).
[2] abbreviates: top dose 1 μM, read-out: p38a/MK2 (1 μM) Enzyme pIC50 (converted).

Like-named read-outs stand apart in the source and are kept apart here. Some results are limits rather than exact numbers.

Chain of p38a/MK2 (P49137 46-400): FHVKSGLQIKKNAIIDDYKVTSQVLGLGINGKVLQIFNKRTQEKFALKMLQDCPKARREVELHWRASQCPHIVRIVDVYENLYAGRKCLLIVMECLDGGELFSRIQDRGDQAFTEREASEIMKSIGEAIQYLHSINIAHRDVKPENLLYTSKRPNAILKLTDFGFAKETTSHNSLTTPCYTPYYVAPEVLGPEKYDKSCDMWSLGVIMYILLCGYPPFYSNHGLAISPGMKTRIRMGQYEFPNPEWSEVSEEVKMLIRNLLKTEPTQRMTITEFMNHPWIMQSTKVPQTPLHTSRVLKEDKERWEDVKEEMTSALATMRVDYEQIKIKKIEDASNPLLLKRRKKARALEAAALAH
Chain of p38a/MK2 (Q16539 whole entry): as the sequence (Q16539 whole entry) above

As for `CCc1cnc(-c2ccnc(C(C)(C)O)n2)cc1-n1c(C)cc(OCc2ncc(F)cc2F)c(Cl)c1=O` (single isomer, unassigned) [Example 29B, rel-3-chloro-4-((3,5-difluoropyridin-2-yl)methoxy)-5′-ethyl-2′-(2-(2-hydroxypropan-2-yl)pyrimidin-4-yl)-6-methyl-2H-[1,4′-bipyridin]-2-one], the values for the IC50 on p38a/PRAK and on p38a/MK2 (setting [1]) were more than 316 µM and more than 10 µM, respectively.
Taken in the same sequence, the figures for `Cc1cnc(-c2nc(C(C)(C)O)ncc2C2CC2)cc1-n1c(C)cc(OCc2ncc(F)cc2F)c(Cl)c1=O` (single isomer, unassigned) [Example 31A, rel-3-chloro-2′-(5-cyclopropyl-2-(2-hydroxypropan-2-yl)pyrimidin-4-yl)-4-((3,5-difluoropyridin-2-yl)methoxy)-5′,6-dimethyl-2H-[1,4′-bipyridin]-2-one] were 3.16 µM and 2 µM.
Taken in the same sequence, the figures for `Cc1cnc(-c2nc(C(C)(C)O)ncc2C2CC2)cc1-n1c(C)cc(OCc2ncc(F)cc2F)c(Cl)c1=O` (single isomer, unassigned) [Example 31B, rel-3-chloro-2′-(5-cyclopropyl-2-(2-hydroxypropan-2-yl)pyrimidin-4-yl)-4-((3,5-difluoropyridin-2-yl)methoxy)-5′,6-dimethyl-2H-[1,4′-bipyridin]-2-one] were more than 316 µM and more than 10 µM.
`Cc1cnc(-c2ccc3c(n2)C(C)(O)CC3)cc1-n1c(C)cc(OCc2ncc(F)cc2F)c(Cl)c1=O` (single isomer, unassigned) [Example 32A]: the figures for the IC50 at p38a/PRAK and at p38a/MK2 (setting [2]) were 6.31 µM and 0.02 µM, respectively.
Consider `Cc1cnc(-c2ccc3c(n2)C(C)(O)CC3)cc1-n1c(C)cc(OCc2ncc(F)cc2F)c(Cl)c1=O` (single isomer, unassigned) [Example 32B], for which the IC50 was more than 316 µM at p38a/PRAK and 1 µM at p38a/MK2 (setting [1]).
`Cc1cnc(-c2ccc3c(n2)C(C)(O)CC3)cc1-n1c(C)cc(OCc2ncc(F)cc2F)c(Cl)c1=O` (single isomer, unassigned) [Example 32C]: the IC50 was 6.31 µM on p38a/PRAK and 0.0631 µM at p38a/MK2 (setting [1]).
`Cc1cnc(-c2ccc3c(n2)C(C)(O)CC3)cc1-n1c(C)cc(OCc2ncc(F)cc2F)c(Cl)c1=O` (single isomer, unassigned) [Example 32D]: the IC50 at p38a/PRAK was more than 316 µM; at p38a/MK2 (setting [1]), 1.26 µM.
For `Cc1sc(-c2ccnc(C(C)(C)O)n2)cc1-n1c(C)cc(OCc2ncc(F)cc2F)c(Cl)c1=O` (single isomer, unassigned) [Example 33A, 3-chloro-4-[(3,5-difluoropyridin-2-yl)methoxy]-1-{5-[2-(2-hydroxypropan-2-yl)pyrimidin-4-yl]-2-methylthiophen-3-yl}-6-methylpyridin-2-one], the IC50 is 5.01 µM at p38a/PRAK and 0.0251 µM on p38a/MK2 (setting [2]).
On to `Cc1sc(-c2ccnc(C(C)(C)O)n2)cc1-n1c(C)cc(OCc2ncc(F)cc2F)c(Cl)c1=O` (single isomer, unassigned) [Example 33B, 3-chloro-4-[(3,5-difluoropyridin-2-yl)methoxy]-1-{5-[2-(2-hydroxypropan-2-yl)pyrimidin-4-yl]-2-methylthiophen-3-yl}-6-methylpyridin-2-one], for which, at p38a/PRAK, the IC50 was 50.1 µM. For the same compound, the “p38a/MK2 (10 μM) Enzyme pIC50” value at p38a/MK2 (top dose 10 μM) was determined as 6.5.
As for `Cc1cnc(-c2cccc([C@@H](O)CO)n2)cc1-n1c(C)cc(OCc2ncc(F)cc2F)c(Cl)c1=O` (single isomer, unassigned) [Example 34A, rel-3-chloro-4-[(3,5-difluoropyridin-2-yl)methoxy]-2′-[6-(1,2-dihydroxyethyl)pyridin-2-yl]-5′,6-dimethyl-[1,4′-bipyridin]-2-one], the IC50 on p38a/PRAK was 10 µM; on p38a/MK2 (setting [2]), 0.02 µM.
Regarding `Cc1cnc(-c2cccc([C@H](O)CO)n2)cc1-n1c(C)cc(OCc2ncc(F)cc2F)c(Cl)c1=O` (single isomer, unassigned) [Example 34B, rel-3-chloro-4-[(3,5-difluoropyridin-2-yl)methoxy]-2′-[6-(1,2-dihydroxyethyl)pyridin-2-yl]-5′,6-dimethyl-[1,4′-bipyridin]-2-one], the IC50 was 6.31 µM on p38a/PRAK and 0.0126 µM at p38a/MK2 (setting [1]).
Taken in the same sequence, the figures for `Cc1cnc(-c2cccc([C@H](O)CO)n2)cc1-n1c(C)cc(OCc2ncc(F)cc2F)c(Cl)c1=O` (single isomer, unassigned) [Example 34C, rel-3-chloro-4-[(3,5-difluoropyridin-2-yl)methoxy]-2′-[6-(1,2-dihydroxyethyl)pyridin-2-yl]-5′,6-dimethyl-[1,4′-bipyridin]-2-one] were more than 316 µM and 2 µM.
Taken in the same sequence, the figures for `Cc1cnc(-c2cccc([C@@H](O)CO)n2)cc1-n1c(C)cc(OCc2ncc(F)cc2F)c(Cl)c1=O` (single isomer, unassigned) [Example 34D, rel-3-chloro-4-[(3,5-difluoropyridin-2-yl)methoxy]-2′-[6-(1,2-dihydroxyethyl)pyridin-2-yl]-5′,6-dimethyl-[1,4′-bipyridin]-2-one] were more than 316 µM and 3.16 µM.
Consider `Cc1cnc(-c2ccnc(C(O)C3CC3)n2)cc1-n1c(C)cc(OCc2ncc(F)cc2F)c(Cl)c1=O` (single isomer, unassigned) [Example 35A, rel-3-chloro-2′-{2-[cyclopropyl(hydroxy)methyl]pyrimidin-4-yl}-4-[(3,5-difluoropyridin-2-yl)methoxy]-5′,6-dimethyl-[1,4′-bipyridin]-2-one], for which the IC50 at p38a/PRAK was 10 µM; on p38a/MK2 (setting [2]), 0.0501 µM.
Taken in the same sequence, the figures for `Cc1cnc(-c2ccnc(C(O)C3CC3)n2)cc1-n1c(C)cc(OCc2ncc(F)cc2F)c(Cl)c1=O` (single isomer, unassigned) [Example 35B, rel-3-chloro-2′-{2-[cyclopropyl(hydroxy)methyl]pyrimidin-4-yl}-4-[(3,5-difluoropyridin-2-yl)methoxy]-5′,6-dimethyl-[1,4′-bipyridin]-2-one] were 5.01 µM and 0.0158 µM.
Taken in the same sequence, the figures for `Cc1cnc(-c2ccnc(C(O)C3CC3)n2)cc1-n1c(C)cc(OCc2ncc(F)cc2F)c(Cl)c1=O` (single isomer, unassigned) [Example 35C, rel-3-chloro-2′-{2-[cyclopropyl(hydroxy)methyl]pyrimidin-4-yl}-4-[(3,5-difluoropyridin-2-yl)methoxy]-5′,6-dimethyl-[1,4′-bipyridin]-2-one] were more than 316 µM and more than 1 µM.
Taken in the same sequence, the figures for `Cc1cnc(-c2ccnc([C@@H](O)C3CC3)n2)cc1-n1c(C)cc(OCc2ncc(F)cc2F)c(Cl)c1=O` (single isomer, unassigned) [Example 35D, rel-3-chloro-2′-{2-[cyclopropyl(hydroxy)methyl]pyrimidin-4-yl}-4-[(3,5-difluoropyridin-2-yl)methoxy]-5′,6-dimethyl-[1,4′-bipyridin]-2-one] were more than 316 µM and more than 1 µM.
As for `Cc1cnc(-c2cccc([C@@](C)(O)CO)n2)cc1-n1c(C)cc(OCc2ncc(F)cc2F)c(Cl)c1=O` (single isomer, unassigned) [Example 36B, rel-3-chloro-4-[(3,5-difluoropyridin-2-yl)methoxy]-2′-[6-(1,2-dihydroxypropan-2-yl)pyridin-2-yl]-5′,6-dimethyl-[1,4′-bipyridin]-2-one], the IC50 on p38a/PRAK was 15.8 µM; on p38a/MK2 (setting [2]), 0.00631 µM.

The values above are taken from US11680056B2, “MK2 inhibitors and uses thereof” (Xinthera, Inc., priority 2021, dated 2023).
